Tests used:
[1] = system: Hep-G2 cells; assay: HDL uptake by Hep-G2 cells (125I-labelled HDL), proxy for HDL-raising activity; type: cell-based; conditions: compared with niacin
Method: • Split HepG2 cells in 24 well plates 2˜3 days prior to niacin treatment, 0.5 mL complete DMEM media is added per well • Cells were pre-incubated with niacin (1 mM) for 24˜48 h • Wash HepG2 cells 3 times with PBS • Incubate HepG2 cells in […] medium C(DMEM containing 5 mg/mL fatty acid free BSA), containing ^125I-labelled HDL ([…] with specificity ofo 300-500 cpm/ng HDL protein. For 16 h • Aspirate the media and wash the cells with 0.5 mL of 0.1 mg/mL BSA-PBS twice, and with PBS twice • Cells were digested in […] of 1 N NaOH at room temperature overnight • […] of cell lysate was used for gamma-counting • […] of cell lysate was used for protein assay by BCA method • HDL uptake activity is expressed as “cpm of ^125I-HDL uptake/mg of cell protein.

[2] = system: THP-1 macrophages; assay: PGD2 release by THP-1 macrophages, proxy for flush inducing activity; type: cell-based; conditions: compared with niacin
Method: THP-1 cells were grown in RPMI complete media • 2×10^6 cells/well in 24 well flask were seeded in serum free media containing […] of PMA. Cells were allowed to differentiate into macrophages for 12 hours • The media was replaced with complete RPMI media and incubation continued for 5 hours • After incubation, media was aspirated and cells were treated with niacin and niacin analogs in 1 mL of serum free RPMI media. • Incubated for 30 min. […] of media was collected, PGD2 secreted was derivitized into stable MOX derivative. • PGD2 in the sample was assayed by using PGD2 assay kit from Cayman chemicals. Incorporation By Reference

[3] = humans, daily oral doses of 2-3 g; cited from earlier work

O=C(O)C/C=C/c1cccnc1 [Compound 2035, 4-pyridin-3-yl-but-3-enoic acid]
reduction of HDL uptake / HDL-raising activity relative to niacin [1]: essentially as well as niacin
induction of PGD2 release / flush inducing activity relative to niacin [2]: very much less ability to induce PDG2 release

O=C(O)c1cccnc1 [niacin]
effect on Lp(a) [3]: reduce Lp(a)

— US9193708B2, “Non-flushing niacin analogues, and methods of use thereof” (Trustees of Tufts College, priority 2006, dated 2015)
